# From patent US10828315B2 (Madrigal Pharmaceuticals, Inc., priority 2013, dated 2020)
# Like-named read-outs stand apart in the source and are kept apart here.
# Key:
# [1] = Mouse plasma stability protocol, up to 1 h (Examples 16-18); details: for % Remaining (1 h): % Remaining of parent after 1 h incubation in mouse plasma at 37° C. (10 μM); for % Remaining (1 h, 37° C.): mouse plasma
# [2] = Metabolite profiling and identification; type: in vitro ADME; design: key: —: Not detected; details: for Metabolite N-dealkylation + glucuronidation: M+1 527.3; for Metabolite Sulfation: M+1 542.3; for Metabolite Hydrolysis (SN-38): M+1 393.3; for Metabolite Hydrolysis (SDC-TRAP-0062): M+1 462.3; for Metabolite Hydrolysis (SN-38) + glucuronidation: M+1 569.3; for Metabolite Hydrolysis (SDC-TRAP-0062) + glucuronidation: M+1 638.3; for Metabolite Hydrolysis (SDC-TRAP-0063): M+1 880.3; for Metabolite Hydrolysis (SDC-TRAP-0063) + glucuronidation: M+1 1056.4; for Metabolite Glucuronidation: M+1 1136.4
# From the text: Metabolite Profiling and Identification: Metabolite profiling/identification for SDC-TRAP-0063 (M+1:880.3)
# [3] = female, SCID, mouse, in vivo
# Description: Using the 10 mM stock solutions of the SDC-TRAP molecule and its Hsp90i binding moiety and effector moiety in DMSO, spiking solutions were prepared at 0.025, 0.05, 0.1, 0.5, 1, 5, 10, 50, 100, 250, and 500 μM in DMSO. 5 μL of each spiking solution was added to a 96-deep well plate.
# Quality control standards were prepared from 5 μL of 0.1, 1, and 10 μM calibration standard spiking solution added in triplicate into 96-deep well plate and adding 50 μL of matrix (plasma or homogenized tumor).
# To prepare test samples, test plasma was diluted as needed using blank plasma.
# Tumor samples were pulverized in liquid nitrogen, weighed, and homogenized in PBS at 5× volume to sample weight. 50 μL of unknown plasma or homogenized tumor sample was mixed with 5 μL of DMSO. The samples were extracted by precipitating calibration standards, QC standards, and unknown samples with 200 μL of internal standard solution. The samples were mixed by vortex at room temperature for approximately 1.5 minutes, then centrifuge at 2-8° C. 150 μL of supernatant was collected and 25 μL of water added. Samples were mixed and analyzed by LC-MS/MS.
# Samples of plasma, heart and tumor were excised from a euthanized mouse, homogenized in PBS at 5 times tissue weight and diluted in 5 μL DMSO/50 μL sample. Prior to analysis, 55 μL samples and calibration standards were precipitated in 200 μL methanol in 96-well plates. Samples were mixed on a vortex mixer for 1.5 minutes at 1500 rpm at room temperature, then centrifuged at 4400 rpm for 10 minutes at 8° C. 150 μL of each supernatant was transferred to a well of a new 96-well plate, and 25 μL of water was added and mixed with the sample. […] For the analysis of samples from female SCID mice, a gradient of solvent A (water/0.1% formic acid) and B (acetonitrile/0.1% formic acid) was used as in Table 2 below.
# Various SDC-TRAP molecules and appropriate controls were administered to mice and after various time points the plasma and tumor concentration of these molecules was determined.
structure (smiles),measurement,setting,value
"CCNC(=O)c1nnc(-c2cc(C(C)C)c(O)cc2O)n1-c1ccc(CN2CCC(C(=O)N3CCC(C(=O)OC4(CC)C(=O)OCc5c4cc4n(c5=O)Cc5c-4nc4ccc(O)cc4c5CC)CC3)CC2)cc1 (stereo not drawn) [SDC-TRAP-0076, 4,11-diethyl-9-hydroxy-3,14-dioxo-3,4,12,14-tetrahydro-1H-pyrano[3′,4′:6,7]indolizino[1,2-b]quinolin-4-yl 1-(1-(4-(3-(2,4-dihydroxy-5-isopropylphenyl)-5-(ethylcarbamoyl)-4H-1,2,4-triazol-4-yl)benzyl)piperidine-4-carbonyl)piperidine-4-carboxylate]",% Remaining (1 h),[1],96.0%
same,"% Remaining (1 h, 37° C.)",[1],96%
"CCNC(=O)c1nnc(-c2cc(C(C)C)c(O)cc2O)n1-c1ccc(OC2CCN(C(=O)C3CCCCN3C(=O)Oc3ccc4nc5c(c(CC)c4c3)Cn3c-5cc4c(c3=O)COC(=O)[C@]4(O)CC)CC2)cc1 (stereo partly drawn) [SDC-TRAP-0216, (S)-4,11-diethyl-4-hydroxy-3,14-dioxo-3,4,12,14-tetrahydro-1H-pyrano[3′,4′:6,7]indolizino[1,2-b]quinolin-9-yl 2-(4-(4-(3-(2,4-dihydroxy-5-isopropylphenyl)-5-(ethylcarbamoyl)-4H-1,2,4-triazol-4-yl)phenoxy)piperidine-1-carbonyl)piperidine-1-carboxylate]","% Remaining (1 h, 37° C.)",[1],67.7%
"CCc1c2c(nc3ccc(OC(=O)N4CCN(S(=O)(=O)N5CCC(CCn6ccc7cc(-n8c(O)nnc8-c8cc(C(C)C)c(O)cc8O)ccc76)CC5)CC4)cc13)-c1cc3c(c(=O)n1C2)COC(=O)C3(O)CC (stereo not drawn) [SDC-TRAP-0361, 4,11-diethyl-4-hydroxy-3,14-dioxo-3,4,12,14-tetrahydro-1H-pyrano[3′,4′: 6,7]indolizino[1,2-b]quinolin-9-yl 4-((4-(2-(5-(3-(2,4-dihydroxy-5-isopropylphenyl)-5-hydroxy-4H-1,2,4-triazol-4-yl)-1H-indol-1-yl)ethyl)piperidin-1-yl)sulfonyl)piperazine-1-carboxylate]",% Remaining (1 h),[1],25.6%
CCc1c2c(nc3ccc(O)cc13)-c1cc3c(c(=O)n1C2)COC(=O)C3(CC)OC(=O)N1CCN(C(=O)C2CCN(c3ccc(-n4c(O)nnc4-c4cc(C(C)C)c(O)cc4O)cc3)CC2)CC1 (stereo not drawn),% Remaining (1 h),[1],108%
"CCc1c2c(nc3ccc(OC(=O)N4CCC(N5CCC(CCn6ccc7ccc(-n8c(O)nnc8-c8cc(C(C)C)c(O)cc8O)cc76)CC5)CC4)cc13)-c1cc3c(c(=O)n1C2)COC(=O)C3(O)CC (stereo not drawn) [SDC-TRAP-0353, 4,11-diethyl-4-hydroxy-3,14-dioxo-3,4,12,14-tetrahydro-1H-pyrano[3′,4′:6,7]indolizino[1,2-b]quinolin-9-yl 4-(2-(6-(3-(2,4-dihydroxy-5-isopropylphenyl)-5-hydroxy-4H-1,2,4-triazol-4-yl)-1H-indol-1-yl)ethyl)-[1,4′-bipiperidine]-1′-carboxylate]",% Remaining (1 h),[1],22.5%
"CCNC(=O)c1nnc(-c2cc(C(C)C)c(O)cc2O)n1-c1ccc(S(=O)(=O)N2CCC(C(=O)N3CCN(C(=O)Oc4ccc5nc6c(c(CC)c5c4)Cn4c-6cc5c(c4=O)COC(=O)C5(O)CC)C(C)C3)CC2)cc1 (stereo not drawn) [SDC-TRAP-0396, 4,11-diethyl-4-hydroxy-3,14-dioxo-3,4,12,14-tetrahydro-1H-pyrano[3′,4:6,7]indolizino[1,2-b]quinolin-9-yl 4-(1-((4-(3-(2,4-dihydroxy-5-isopropylphenyl)-5-(ethylcarbamoyl)-4H-1,2,4-triazol-4-yl)phenyl)sulfonyl)piperidine-4-carbonyl)-2-methylpiperazine-1-carboxylate]",% Remaining (1 h),[1],71.6%
CC(C)c1cc(-c2nnc(O)n2-c2ccc3c(ccn3CCC3CCNCC3)c2)c(O)cc1O [SDC-TRAP-0062],Metabolite N-dealkylation + glucuronidation,[2]; Hepatocytes Dog,√
same,Metabolite N-dealkylation + glucuronidation,[2]; Hepatocytes Human,√
same,Metabolite N-dealkylation + glucuronidation,[2]; Hepatocytes Monkey,—
same,Metabolite N-dealkylation + glucuronidation,[2]; Hepatocytes Mouse,√
same,Metabolite Sulfation,[2]; Hepatocytes Mouse,—
same,Metabolite N-dealkylation + glucuronidation,[2]; Hepatocytes Rat,—
same,Metabolite Sulfation,[2]; Hepatocytes Rat,√
"CCNC(=O)c1noc(-c2cc(C(C)C)c(O)cc2O)c1-c1ccc(CN2CCN(C(=O)Oc3ccc4nc5c(c(CC)c4c3)Cn3c-5cc4c(c3=O)COC(=O)C4(O)CC)CC2)cc1 (stereo not drawn) [SDC-TRAP-0236, 4,11-diethyl-4-hydroxy-3,14-dioxo-3,4,12,14-tetrahydro-1H-pyrano[3′,4′:6,7]indolizino[1,2-b]quinolin-9-yl 4-(4-(5-(2,4-dihydroxy-5-isopropylphenyl)-3-(ethylcarbamoyl)isoxazol-4-yl)benzyl)piperazine-1-carboxylate]",% Remaining (1 h),[1],60.8%
CC(C)c1cc(-c2nnc(O)n2-c2ccc3c(ccn3CCC3CCNCC3)c2)c(O)cc1O [DP-1],Tumor Conc.,[3]; 24 h,0.404 nmol/g of tissue
same,Tumor Conc.,[3]; 48 h,1.06 nmol/g of tissue
same,Tumor Conc.,[3]; […],0.00758 nmol/g of tissue
"CCc1c2c(nc3ccc(OC(=O)N4CCC(S(=O)(=O)N5CCC(CCn6ccc7cc(-n8c(O)nnc8-c8cc(C(C)C)c(O)cc8O)ccc76)CC5)CC4)cc13)-c1cc3c(c(=O)n1C2)COC(=O)[C@]3(O)CC [SDC-TRAP-0336, (S)-4,11-diethyl-4-hydroxy-3,14-dioxo-3,4,12,14-tetrahydro-1H-pyrano[3′,4′:6,7]indolizino[1,2-b]quinolin-9-yl 4-((4-(2-(5-(3-(2,4-dihydroxy-5-isopropylphenyl)-5-hydroxy-4H-1,2,4-triazol-4-yl)-1H-indol-1-yl)ethyl)piperidin-1-yl)sulfonyl)piperidine-1-carboxylate]",% Remaining (1 h),[1],31.7%
"CCc1c2c(nc3ccc(OC(=O)N4CCC(CCn5ccc6cc(-n7c(O)nnc7-c7cc(C(C)C)c(O)cc7O)ccc65)CC4)cc13)-c1cc3c(c(=O)n1C2)COC(=O)C3(CC)OP(=O)(O)O (stereo not drawn) [SDC-TRAP-0397, 4,11-diethyl-3,14-dioxo-4-(phosphonooxy)-3,4,12,14-tetrahydro-1H-pyrano[3′,4′: 6,7]indolizino[1,2-b]quinolin-9-yl 4-(2-(5-(3-(2,4-dihydroxy-5-isopropylphenyl)-5-hydroxy-4H-1,2,4-triazol-4-yl)-1H-indol-1-yl)ethyl)piperidine-1-carboxylate]",Metabolite Hydrolysis (SN-38),[2]; Hepatocytes Dog,√
same,Metabolite Hydrolysis (SDC-TRAP-0062),[2]; Hepatocytes Dog,√
same,Metabolite Hydrolysis (SN-38) + glucuronidation,[2]; Hepatocytes Dog,—
same,Metabolite Hydrolysis (SDC-TRAP-0062) + glucuronidation,[2]; Hepatocytes Dog,—
same,Metabolite Hydrolysis (SDC-TRAP-0063),[2]; Hepatocytes Dog,—
same,Metabolite Hydrolysis (SDC-TRAP-0063) + glucuronidation,[2]; Hepatocytes Dog,—
same,Metabolite Glucuronidation,[2]; Hepatocytes Dog,—
same,Metabolite Hydrolysis (SN-38),[2]; Hepatocytes Human,√
same,Metabolite Hydrolysis (SDC-TRAP-0062),[2]; Hepatocytes Human,√
same,Metabolite Hydrolysis (SN-38) + glucuronidation,[2]; Hepatocytes Human,—
same,Metabolite Hydrolysis (SDC-TRAP-0062) + glucuronidation,[2]; Hepatocytes Human,—
same,Metabolite Hydrolysis (SDC-TRAP-0063),[2]; Hepatocytes Human,√
same,Metabolite Hydrolysis (SDC-TRAP-0063) + glucuronidation,[2]; Hepatocytes Human,√
same,Metabolite Glucuronidation,[2]; Hepatocytes Human,—
same,Metabolite Hydrolysis (SN-38),[2]; Hepatocytes Monkey,—
same,Metabolite Hydrolysis (SDC-TRAP-0062),[2]; Hepatocytes Monkey,—
same,Metabolite Hydrolysis (SN-38) + glucuronidation,[2]; Hepatocytes Monkey,√
same,Metabolite Hydrolysis (SDC-TRAP-0062) + glucuronidation,[2]; Hepatocytes Monkey,√
same,Metabolite Hydrolysis (SDC-TRAP-0063),[2]; Hepatocytes Monkey,—
same,Metabolite Hydrolysis (SDC-TRAP-0063) + glucuronidation,[2]; Hepatocytes Monkey,√
same,Metabolite Glucuronidation,[2]; Hepatocytes Monkey,√
same,Metabolite Hydrolysis (SN-38),[2]; Hepatocytes Mouse,√
same,Metabolite Hydrolysis (SDC-TRAP-0062),[2]; Hepatocytes Mouse,√
same,Metabolite Hydrolysis (SN-38) + glucuronidation,[2]; Hepatocytes Mouse,—
same,Metabolite Hydrolysis (SDC-TRAP-0062) + glucuronidation,[2]; Hepatocytes Mouse,—
same,Metabolite Hydrolysis (SDC-TRAP-0063),[2]; Hepatocytes Mouse,—
same,Metabolite Hydrolysis (SDC-TRAP-0063) + glucuronidation,[2]; Hepatocytes Mouse,√
same,Metabolite Glucuronidation,[2]; Hepatocytes Mouse,√
same,Metabolite Hydrolysis (SN-38),[2]; Hepatocytes Rat,—
same,Metabolite Hydrolysis (SDC-TRAP-0062),[2]; Hepatocytes Rat,√
same,Metabolite Hydrolysis (SN-38) + glucuronidation,[2]; Hepatocytes Rat,—
same,Metabolite Hydrolysis (SDC-TRAP-0062) + glucuronidation,[2]; Hepatocytes Rat,—
same,Metabolite Hydrolysis (SDC-TRAP-0063),[2]; Hepatocytes Rat,—
same,Metabolite Hydrolysis (SDC-TRAP-0063) + glucuronidation,[2]; Hepatocytes Rat,√
same,Metabolite Glucuronidation,[2]; Hepatocytes Rat,—
